The results in this text go back to publication PMC6792352, “Limited Chemical Structural Diversity Found to Modulate Thyroid Hormone Receptor in the Tox21 Chemical Library” (Environmental Health Perspectives, 2019).

Where a name gives a salt, the structure may show the parent alone. Where only a bound is given, the exact number is not on record here.

The data set in a line: in vitro. Conditions: rat, gh3-tre-luc cells.

As to `CC1=NN(c2ccc(S(=O)(=O)O)cc2)C(=O)C1` [4-(3-Methyl-5-oxo-4,5-dihydro-1H-pyrazol-1-yl)benzenesulfonic acid], the CC50 (usually the concentration that lowers cell viability or growth by half) at 24 h (AC50 (uM) modified / 1000) is above 90 µM. Same read-out and setting: the result for `CC(=O)NCCCCCC(=O)O` [Acexamic acid] reads above 50 µM; that for `NC(=O)NC(N)=O` [Imidodicarbonic diamide], above 90 µM.

Compound `O=S1(=O)OCC2C(CO1)C1(Cl)C(Cl)=C(Cl)C2(Cl)C1(Cl)Cl` (stereo not drawn) [Endosulfan sulfate] yielded a CC50 at 24 h (AC50 (uM) modified / 1000, Tox21_110001=Tox21_300782, viability, 1 nM T3 present, 24 h) of 56.1 µM.

Turning to `CCCCCCCCCCCC(=O)O` [Dodecanoic acid], the CC50 at 24 h (AC50 (uM) modified / 1000) was above 90 µM. Consider `CCCc1c(OCCCOc2ccc(OCC(=O)O)cc2)ccc(C(C)=O)c1O` [4-[3-(4-Acetyl-3-hydroxy-2-propylphenoxy)propoxy]phenoxy-acetic acid], for which the CC50 at 24 h (AC50 (uM) modified / 1000) was above 90 µM. Still for that read-out and setting: in the case of `CCC(C)c1cc([N+](=O)[O-])cc([N+](=O)[O-])c1OC(=O)C=C(C)C` (stereo not drawn) [Binapacryl] it was 36.3 µM. The same measure, in the same setting: the result for `CC(C)OC(=O)OCOP(=O)(CO[C@H](C)Cn1cnc2c(N)ncnc21)OCOC(=O)OC(C)C` [Tenofovir disoproxil fumarate] reads above 50 µM. For `OCC(Br)CBr` (stereo not drawn) [2,3-Dibromopropanol], the 50% cytotoxic concentration (CC50) at 24 h (AC50 (uM) modified / 1000, Tox21_110001=Tox21_200709, viability, 1 nM T3 present, 24 h) is above 90 µM. For the compound `CC(C(=O)O)c1ccc(/C=C2\CCCCC2=O)cc1` (stereo not drawn) [Pelubiprofen], under “AC50 (uM) modified / 1000”, the CC50 at 24 h was above 50 µM.

Where the note is “AC50 (uM) modified / 1000”, `Cc1cc(N)c2ccccc2[n+]1CCCCCCCCCC[n+]1c(C)cc(N)c2ccccc21` [Dequalinium dichloride] came in with a CC50 at 24 h of 12.4 µM. The same measure, in the same setting: in the case of `FC(F)OC(Cl)C(F)(F)F` (stereo not drawn) [Isoflurane] it was above 90 µM. The same measure, in the same setting: the result for `CCCCNC(N)=O` [N-Butylurea] reads above 90 µM. On the same count and under the same terms, in the case of `CN(C)CCOCCO` [2-[2-(Dimethylamino)ethoxy]ethanol] it was above 90 µM. `C#C[C@]1(OC(C)=O)CC[C@H]2[C@@H]3CCC4=CC(=NO)CC[C@@H]4[C@H]3CC[C@@]21CC` (mixture of isomers) [Norgestimate] had a CC50 at 24 h (AC50 (uM) modified / 1000) of 30.6 µM. `NC[C@@H]1CC[C@@H](N)[C@@H](O[C@H]2[C@H](O)[C@@H](O[C@H]3O[C@H](CO)[C@@H](O)[C@H](N)[C@H]3O)[C@H](N)C[C@@H]2N)O1` [Dibekacin] yielded a CC50 at 24 h (AC50 (uM) modified / 1000) above 50 µM. Still for that read-out and setting: the result for `CC(=C(CCOC(=O)C(C)C)SSC(CCOC(=O)C(C)C)=C(C)N(C=O)Cc1cnc(C)nc1N)N(C=O)Cc1cnc(C)nc1N` (stereo in doubt) [Bisibutiamine] reads above 50 µM; that for `CCN1CCCC1=O` [1-Ethyl-2-pyrrolidinone], above 90 µM. Still for that read-out and setting: in the case of `CCCCOC(=O)[C@H](C)O` [Butyl (2S)-2-hydroxypropanoate] it was above 90 µM. Same read-out and setting: in the case of `O=C(NO)c1ccccc1` [N-Hydroxybenzamide] it was above 90 µM. For `CC(C#N)CCC#N` (stereo not drawn) [2-Methylpentanedinitrile], the half-maximal cytotoxic concentration (CC50) at 24 h (AC50 (uM) modified / 1000, Tox21_110001=Tox21_201788, viability, 1 nM T3 present, 24 h) is above 90 µM. `COCc1nnc(-c2ccc[n+]([O-])c2)n1-c1c(Cl)c(Cl)cc2[nH]c(=O)c(=O)[nH]c12` [UK-333747] had a CC50 at 24 h (AC50 (uM) modified / 1000) above 90 µM.

Consider `COc1ccc2[nH]cc(CCN(C(C)C)C(C)C)c2c1` [5-Methoxy-N,N-diisopropyltryptamine hydrochloride], for which, where the note is “AC50 (uM) modified / 1000, Tox21_110001=Tox21_112880, viability, 1 nM T3 present, 24 h”, the half-maximal cytotoxic concentration (CC50) at 24 h was above 100 µM. Regarding `COc1ccc(/C=N/NC(=O)c2ccncc2)c(C(=O)O)c1OC` [Opiniazide], for the setting “AC50 (uM) modified / 1000”, the CC50 at 24 h is above 50 µM. On to `CC(=O)C(C)(C)C` [3,3-Dimethyl-2-butanone], for which, under “AC50 (uM) modified / 1000, Tox21_110001=Tox21_200060, viability, 1 nM T3 present, 24 h”, the CC50 at 24 h is above 100 µM. The compound `CC1(C)O[C@@H]2C[C@H]3[C@@H]4C[C@H](F)C5=CC(=O)C=C[C@]5(C)[C@H]4[C@@H](O)C[C@]3(C)[C@]2(C(=O)CO)O1` [Flunisolide] returned a CC50 at 24 h (AC50 (uM) modified / 1000) above 20 µM. Same read-out and setting: the result for `O=C(O)COc1ccc(Cl)cc1Cl` [2,4-D, Dimethylamine salt] reads above 90 µM.

In turn, `CC(=O)CC(=O)Nc1ccc(C)cc1C` [N-(2,4-Dimethylphenyl)-3-oxobutanamide] displayed a CC50 at 24 h (AC50 (uM) modified / 1000) above 90 µM.

Consider `CC/C=C\CC/C=C/CO` [trans-2,cis-6-Nonadien-1-ol], for which the CC50 at 24 h (AC50 (uM) modified / 1000) is above 90 µM. As to `COc1c(C(C)(C)C)cc([N+](=O)[O-])c(C)c1[N+](=O)[O-]` [Musk ambrette], the CC50 at 24 h (AC50 (uM) modified / 1000, Tox21_110001=Tox21_201195, viability, 1 nM T3 present, 24 h) is above 90 µM. In the case of `C/C=C(C)/C=C/C=C(C)C` [2,6-Dimethyl-2,4,6-octatriene], the CC50 at 24 h (AC50 (uM) modified / 1000) was above 90 µM.

Take `O=C(O)c1cccc(C(F)(F)F)c1` [3-(Trifluoromethyl)benzoic acid]: for the setting “AC50 (uM) modified / 1000”, the CC50 at 24 h is above 90 µM. Compound `ClC(Cl)C(Cl)Cl` [1,1,2,2-Tetrachloroethane] showed a CC50 at 24 h (AC50 (uM) modified / 1000, Tox21_110001=Tox21_200074, viability, 1 nM T3 present, 24 h) above 90 µM. As for `CC[N+](CC)(CC)CCOC(=O)C(C1CCCC1)C1CCCC1` [Diponium bromide], the CC50 at 24 h (AC50 (uM) modified / 1000) was above 50 µM. The same measure, in the same setting: in the case of `CC(C)C[C@H](NC(=O)CNC(=O)[C@H](Cc1ccc(O)cc1)NC(=O)[C@H](CO)NC(=O)[C@H](Cc1c[nH]c2ccccc12)NC(=O)[C@H](Cc1cnc[nH]1)NC(=O)[C@@H]1CCC(=O)N1)C(=O)N[C@@H](CCCNC(=N)N)C(=O)N1CCC[C@H]1C(=O)NCC(N)=O` [Gonadorelin hydrochloride] it was above 50 µM; in that of `CO/N=C(\C(=O)N[C@@H]1C(=O)N2C(C(=O)O)=C(COC(N)=O)CS[C@H]12)c1ccco1` [Cefuroxime], above 90 µM; in that of `CC1=CCC(O)(C(C)C)CC1` (stereo not drawn) [4-Methyl-1-(propan-2-yl)cyclohex-3-en-1-ol], above 90 µM. `CN(C)C(=O)COC(=O)Cc1ccc(OC(=O)c2ccc(NC(=N)N)cc2)cc1` [Camostat mesylate] yielded a CC50 at 24 h (AC50 (uM) modified / 1000) above 50 µM. Same read-out and setting: in the case of `CCC(C)C(C)=O` (stereo not drawn) [3-Methyl-2-pentanone] it was above 90 µM. Same read-out and setting: the result for `CO[Si](CCCn1c(=O)n(CCC[Si](OC)(OC)OC)c(=O)n(CCC[Si](OC)(OC)OC)c1=O)(OC)OC` [1,3,5-Tris[3-(trimethoxysilyl)propyl]-1,3,5-triazinane-2,4,6-trione] reads above 70 µM; that for `CCCCC(CC)COCCO` (stereo not drawn) [2-(2-Ethylhexyloxy)ethanol], above 90 µM. `CC(C)C(=O)Nc1ccc([N+](=O)[O-])c(C(F)(F)F)c1` [Flutamide] returned a CC50 at 24 h (AC50 (uM) modified / 1000) of 88.9 µM. Still for that read-out and setting: in the case of `CC(C)c1ccc(C#N)cc1` [4-Isopropylbenzonitrile] it was above 90 µM; in that of `CCCOC/C(=N\c1ccc(Cl)cc1C(F)(F)F)n1ccnc1` [Triflumizole], 58.4 µM; in that of `CC1=C(C)S(=O)(=O)CCS1(=O)=O` [Dimethipin], above 90 µM. The same measure, in the same setting: in the case of `CCC(=O)OCC(=O)[C@@]1(OC(=O)CC)[C@H](C)C[C@H]2[C@H]3[C@H]([C@@H](O)C[C@@]21C)[C@@]1(C)C=CC(=O)C=C1C[C@H]3Cl` [Alclometasone dipropionate] it was above 20 µM; in that of `Nc1ccc2c3c(cccc13)-c1ccccc1-2` [3-Aminofluoranthene], above 90 µM. `COc1cccc(N)c1` [3-Methoxyaniline] yielded a CC50 at 24 h (AC50 (uM) modified / 1000) above 90 µM. Still for that read-out and setting: the result for `O=C1CCC(=O)N1CO` [N-Hydroxymethylsuccinimide] reads above 50 µM; that for `COc1cc(C)c(/C=C/C(C)=C/C=C/C(C)=C/C(=O)O)c(C)c1C` [Acitretin], above 50 µM; that for `CCC(=O)O[C@@H]1C[C@H]2CC[C@]1(C)C2(C)C` (racemic) [Isobornyl propanoate], above 90 µM. Same read-out and setting: the result for `CCOC(=O)CCC(=O)OCC` [Diethyl butanedioate] reads above 90 µM.

Compound `c1ccccc1` [Benzene] displayed a CC50 at 24 h (AC50 (uM) modified / 1000) above 90 µM. Still for that read-out and setting: in the case of `CC1(O)CSC(C)(O)CS1` (stereo not drawn) [2,5-Dimethyl-1,4-dithiane-2,5-diol] it was above 90 µM; in that of `Cc1ncc([N+](=O)[O-])n1CC(O)CCl` (stereo not drawn) [Ornidazole], above 20 µM. In turn, `Nc1ccc(O)c(C(=O)O)c1` [5-Aminosalicylic acid] displayed a CC50 at 24 h (AC50 (uM) modified / 1000) above 50 µM.

As for `C[C@H]1C[C@H]2[C@@H]3CCC4=CC(=O)C=C[C@]4(C)[C@@]3(F)[C@@H](O)C[C@]2(C)[C@@]1(O)C(=O)CO` [Betamethasone], the CC50 at 24 h (AC50 (uM) modified / 1000) is above 90 µM. In the case of `O=C1CCCCCCCCCCCCCCO1` [Pentadecan-15-olide], the CC50 at 24 h (AC50 (uM) modified / 1000) is above 90 µM. On the same count and under the same terms, the result for `CC(C)O` [Isopropanol] reads above 100 µM. Same read-out and setting: in the case of `CNCc1ccccc1` [N-Methylbenzylamine hydrochloride] it was above 50 µM; in that of `O=S(=O)(c1ccc(O)cc1)c1ccc(O)cc1` [4,4'-Sulfonyldiphenol], above 90 µM. For the compound `Nc1cccnc1` [3-Pyridinamine], for the setting “AC50 (uM) modified / 1000, Tox21_110001=Tox21_201650, viability, 1 nM T3 present, 24 h”, the CC50 at 24 h was above 90 µM. For `Cc1nc2ccccc2c(=O)n1-c1ccccc1Cl` [Mecloqualone], the midpoint of cytotoxicity (AC50 (uM) modified / 1000, Tox21_110001=Tox21_112870, viability, 1 nM T3 present, 24 h), the CC50 at 24 h, lay at 42.7 µM.

As to `OC[C@H]1O[C@@](CO)(O[C@H]2O[C@H](CO)[C@@H](O)[C@H](O)[C@H]2O)[C@@H](O)[C@@H]1O` [Sucrose], the 50% cytotoxic concentration (CC50) at 24 h (AC50 (uM) modified / 1000) is above 90 µM. Under “AC50 (uM) modified / 1000”, `CC(C)Cc1nccs1` [2-(2-Methylpropyl)thiazole] gave a CC50 at 24 h above 90 µM.

For the setting “AC50 (uM) modified / 1000”, `CCNC(=O)NC(=O)/C(C#N)=N/OC` [Cymoxanil] showed a cytotoxic concentration (CC50) at 24 h above 90 µM. The same measure, in the same setting: the result for `CC(=O)C=Cc1ccco1` [Furfural acetone] reads above 100 µM; that for `C=C(C)CS(=O)(=O)O` [Sodium 2-methylprop-2-ene-1-sulfonate], above 90 µM; that for `CCCCOC(=O)CCCCCCCC(=O)OCCCC` [Dibutyl nonanedioate], above 90 µM.
